Among the test systems are UACC-257 melanoma; CAKI-1 renal; MDA-MB-231 breast; ACHN renal; MCF7 breast; DU-145 prostate; SK-MEL-28 melanoma; HS 578T breast; OVCAR-4 ovarian; COLO 205 colon; A549 NSCLC.
Holding throughout (assay): NCI-60 cell line screen, 48 h

Where “and” joins values, the source holds several entries; their conditions need not be identical. Equal entries are not always repeated.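 These data come from cells grown in 96-well plates and exposed to compound for 48 hours at five concentrations. GI50 marks 50% less growth. The concentration for full growth arrest is given as TGI.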 A value given as a limit tells only on which side of the number the result lay.

`CCOC(=O)CCC(NC(=O)c1ccc(Nc2nc3cc(C(F)(F)F)ccc3nc2-c2ccccc2)cc1)C(=O)OCC` (stereo unspecified): the TGI in the test on UACC-257 melanoma, with CAKI-1 renal, with MDA-MB-231 breast, in the test with ACHN renal, with MCF7 breast and in the test on DU-145 prostate was more than 100 µM throughout. In addition, the TGI in the test with SK-MEL-28 melanoma, in the test on HS 578T breast, with OVCAR-4 ovarian, in the test on COLO 205 colon and in the test on A549 NSCLC was more than 100 µM in each case.

`CC1C[C@]2(C)C(=S)Nc3ccccc3[C@@H]2Nc2ccccc21` (stereo partly specified): the TGI is 32.5 µM with UACC-257 melanoma; 79 µM in the test with CAKI-1 renal; 26.3 µM in the test on MDA-MB-231 breast; 39.5 µM with ACHN renal; 27.3 µM in the test on MCF7 breast; 17.5 µM in the test with DU-145 prostate. Besides, the TGI in the test on SK-MEL-28 melanoma came out at 12.7 µM; in the test on HS 578T breast, 85.5 µM; with OVCAR-4 ovarian, 38.6 µM; with COLO 205 colon, 33.8 µM; with A549 NSCLC, 37.8 µM.

For `C=C1C(=O)C23CC1C[C@H](OC(C)=O)C2C1(C)C(OC(C)=O)C[C@H](O)C(C)(C)[C@H]1C(O)[C@@H]3OC(C)=O` (stereo partly specified), the TGI with UACC-257 melanoma amounted to 24.5 µM; in the test on CAKI-1 renal, 30.7 µM; in the test on MDA-MB-231 breast, 18.6 µM; in the test with ACHN renal, 24.3 µM; in the test on MCF7 breast, 19.4 µM; in the test with DU-145 prostate it was 33.2 µM. For the same molecule, the TGI in the test on SK-MEL-28 melanoma worked out at 24.4 µM; in the test on HS 578T breast, 41.9 µM; in the test on OVCAR-4 ovarian, 25.7 µM; in the test on COLO 205 colon, 14.5 µM; in the test on A549 NSCLC, 48.8 µM.

For the molecule `Cn1c2nc3ccccc3c-2cc2ccccc21`, the GI50 in the test with UACC-257 melanoma was 3.91 µM and 8.6 µM; with CAKI-1 renal, 2.6 µM and 5.52 µM; in the test with MDA-MB-231 breast it was 5.58 µM and 11.6 µM; in the test with ACHN renal, 2.06 µM and 4.8 µM; with SK-MEL-28 melanoma it was 4.87 µM and 10.8 µM; in the test on HS 578T breast it was 4.54 µM and 17.7 µM. The GI50 in the test on OVCAR-4 ovarian was 3.81 µM and 10.7 µM; in the test on A549 NSCLC it was 3.38 µM and 7.11 µM. In addition, the TGI in the test with UACC-257 melanoma is 35.5 µM and 44 µM; in the test with CAKI-1 renal it was 8.7 µM and 37.1 µM; in the test with MDA-MB-231 breast it was > 60.7 µM and 33.1 µM; with ACHN renal, 15.2 µM and > 100 µM; with MCF7 breast it was > 34.8 µM and 36.9 µM; in the test on DU-145 prostate, more than 100 µM. The TGI is > 43.2 µM and 23.1 µM with SK-MEL-28 melanoma; 16.4 µM and 61.3 µM in the test on HS 578T breast; 19 µM and 26.2 µM in the test on OVCAR-4 ovarian; > 35.9 µM and 17.2 µM in the test with COLO 205 colon; 33.2 µM and 88.7 µM with A549 NSCLC.

With `O=C1CC2(CCC(O)(c3ccc(Cl)cc3)C(C(=O)c3ccc(Cl)cc3)C2)C(=O)c2ccccc2N1` (stereo unspecified), the TGI is 62.6 µM in the test on UACC-257 melanoma; more than 40.9 µM in the test with CAKI-1 renal; 30.6 µM with MDA-MB-231 breast; 25.4 µM in the test with ACHN renal; more than 100 µM with MCF7 breast; more than 36.8 µM in the test with DU-145 prostate. The TGI is 20.6 µM in the test with SK-MEL-28 melanoma; 7.44 µM with HS 578T breast; more than 100 µM with OVCAR-4 ovarian; more than 56.5 µM with COLO 205 colon; more than 50.8 µM in the test on A549 NSCLC.

Consider `CCCCCc1c2nc(c(CCCCC)c3ccc([nH]3)c(CCCCC)c3ccc([nH]3)c(CCCCC)c3nc1C=C3)C=C2`, for which the TGI with UACC-257 melanoma, in the test on CAKI-1 renal, in the test with MDA-MB-231 breast, in the test on ACHN renal, with MCF7 breast and in the test on DU-145 prostate was more than 100 µM throughout. The TGI in the test on SK-MEL-28 melanoma, in the test with HS 578T breast, in the test on OVCAR-4 ovarian, with COLO 205 colon and with A549 NSCLC was more than 100 µM in each case.

As for `Cc1sc2nc3n(c(=O)c2c1C)N=C(c1ccc(Cl)cc1)CS3`, the TGI in the test on UACC-257 melanoma, in the test with CAKI-1 renal, in the test with MDA-MB-231 breast, in the test on ACHN renal, with MCF7 breast and in the test on DU-145 prostate was more than 100 µM in each case. The TGI with SK-MEL-28 melanoma, with HS 578T breast, in the test with OVCAR-4 ovarian, in the test on COLO 205 colon and with A549 NSCLC was more than 100 µM throughout.

With `O=c1c2cccnc2nc2ccc3c[nH][nH]c3c12`, the TGI in the test with UACC-257 melanoma, in the test with CAKI-1 renal, in the test on MDA-MB-231 breast, with ACHN renal, with MCF7 breast and in the test with DU-145 prostate was more than 10 µM each time. In addition, the TGI in the test on SK-MEL-28 melanoma, with HS 578T breast, in the test on OVCAR-4 ovarian, in the test on COLO 205 colon and in the test with A549 NSCLC was more than 10 µM in each case.

Regarding `OC1CC(O)c2c(Cl)sc(Cl)c21` (stereo unspecified), the TGI in the test on UACC-257 melanoma is 54.9 µM; in the test on CAKI-1 renal, more than 100 µM; in the test with MDA-MB-231 breast, more than 100 µM; with ACHN renal, more than 100 µM; with MCF7 breast, more than 100 µM; in the test on DU-145 prostate it was more than 100 µM. The TGI with SK-MEL-28 melanoma is more than 100 µM; in the test on HS 578T breast, 82.4 µM; in the test on OVCAR-4 ovarian, more than 100 µM; with COLO 205 colon it was 33.4 µM; in the test on A549 NSCLC, 89.2 µM.

Take `COC(=O)C1(O)c2ccccc2N=C2C(=O)c3ccccc3N21` (stereo unspecified): the TGI in the test with UACC-257 melanoma, in the test with CAKI-1 renal, in the test with MDA-MB-231 breast, with ACHN renal, with MCF7 breast and in the test on DU-145 prostate was more than 100 µM in each case. Further, the TGI in the test with SK-MEL-28 melanoma, in the test with HS 578T breast, in the test on OVCAR-4 ovarian, in the test on COLO 205 colon and in the test on A549 NSCLC was more than 100 µM throughout.

Turning to `O=[N+]([O-])C(=C(N1CCOCC1)N1CCOCC1)/C(Cl)=C(\Cl)[N+](=O)[O-]`, the TGI came out at 10.5 µM in the test on UACC-257 melanoma; 3.04 µM in the test with CAKI-1 renal; 10.1 µM in the test on MDA-MB-231 breast; 14.6 µM in the test with ACHN renal; 7.73 µM with MCF7 breast; 18 µM with DU-145 prostate. Besides, the TGI in the test with SK-MEL-28 melanoma came to 28.9 µM; in the test on HS 578T breast, 16.6 µM; in the test on OVCAR-4 ovarian, 30.7 µM; in the test on COLO 205 colon, 7.62 µM; in the test with A549 NSCLC, 50.8 µM.

Take `CC(C)(C)N1NC1C1NN1C(C)(C)C` (stereo unspecified): the TGI with UACC-257 melanoma, in the test with CAKI-1 renal, with MDA-MB-231 breast, in the test with ACHN renal, in the test with MCF7 breast and in the test on DU-145 prostate was more than 100 µM each time. For the same molecule, the TGI in the test on SK-MEL-28 melanoma, in the test on HS 578T breast, with OVCAR-4 ovarian, with COLO 205 colon and with A549 NSCLC was more than 100 µM throughout.

For the molecule `Cc1ccccc1N(C)S(=O)(=O)c1ccccc1[N+](=O)[O-]`, the TGI in the test with UACC-257 melanoma, with CAKI-1 renal, with MDA-MB-231 breast, with ACHN renal, in the test on MCF7 breast and in the test with DU-145 prostate was more than 100 µM throughout. Besides, the TGI with SK-MEL-28 melanoma, with HS 578T breast, in the test with OVCAR-4 ovarian, in the test with COLO 205 colon and in the test with A549 NSCLC was more than 100 µM throughout.

The values are drawn from PubChem BioAssay (NCI).
